What was measured:
Format in all cases: in vivo
Parameters in all cases: key: 0 is no effect; 10 is complete control
[1] = tested on: bedstraw (Galium aparine); assay: Test B pre-/postemergence; settings: for Bedstraw plant response rating: Preemergence
Procedure, shortened: (§1)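 Seeds were planted and sprayed preemergence, while plants at 2 to 18 cm (1- to 4-leaf stage) were sprayed postemergence at the same time, with test chemical in a non-phytotoxic solvent mixture containing surfactant. After twelve to sixteen days in a greenhouse, injury was rated visually against untreated controls on a 0–10 scale.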

[2] = tested on: blackgrass (Alopecurus myosuroides); assay: Test B pre-/postemergence; settings: for Blackgrass plant response rating: Preemergence
Procedure, shortened: as §1

[3] = tested on: broadleaf signalgrass (Brachiaria decumbens); assay: Test B pre-/postemergence; settings: for B. signalgrass plant response rating: Preemergence
Procedure, shortened: as §1

[4] = tested on: cocklebur (Xanthium strumarium); assay: Test B pre-/postemergence; settings: for Cocklebur plant response rating: Preemergence
Procedure, shortened: as §1

[5] = tested on: corn (Zea mays); assay: Test B pre-/postemergence; settings: for Corn plant response rating: Preemergence
Procedure, shortened: as §1

[6] = tested on: crabgrass (Digitaria sanguinalis); assay: Test B pre-/postemergence; settings: for Crabgrass plant response rating: Preemergence
Procedure, shortened: as §1

[7] = tested on: giant foxtail (Setaria faberii); assay: Test B pre-/postemergence
Procedure, shortened: as §1

[8] = tested on: momingglory (Ipomoea hederacea); assay: Test B pre-/postemergence
Procedure, shortened: as §1

[9] = tested on: pigweed (Amaranthus retroflexus); assay: Test B pre-/postemergence
Procedure, shortened: as §1

[10] = tested on: purple nutsedge (Cyperus rotundus); assay: Test B pre-/postemergence
Procedure, shortened: as §1

[11] = tested on: rape (Brassica napus); assay: Test B pre-/postemergence
Procedure, shortened: as §1

[12] = tested on: soybean (Glycine max); assay: Test B pre-/postemergence
Procedure, shortened: as §1

[13] = tested on: sugar beet (Beta vulgaris); assay: Test B pre-/postemergence
Procedure, shortened: as §1

[14] = tested on: velvetleaf (Abutilon theophrasti); assay: Test B pre-/postemergence
Procedure, shortened: as §1

[15] = tested on: wheat (Triticum aestivum); assay: Test B pre-/postemergence
Procedure, shortened: as §1

[16] = tested on: wild oat (Avena fatua); assay: Test B pre-/postemergence
Procedure, shortened: as §1

[17] = tested on: bamyardgrass (Echinochloa crus-galli); assay: Test B flood test
Procedure, shortened: (§2)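 Plants were grown to the 2-leaf stage before treatment with test chemical, then held in a greenhouse for twelve to sixteen days. Injury was visually rated against untreated controls on a 0–10 scale, where 0 is no effect and 10 is complete control.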

[18] = tested on: duck salad (Heteranthera limosa); assay: Test B flood test
Procedure, shortened: as §2

[19] = tested on: rice (Oryza sativa); assay: Test B flood test
Procedure, shortened: as §2

[20] = tested on: smallflower flatsedge (Cyperus difformis); assay: Test B flood test
Procedure, shortened: as §2

[21] = Rate 250 g/ha, Postemergence (so in the source)
[22] = Rate 62 g/ha, Postemergence (flood test)
[23] = Rate 125 g/ha, Postemergence, flood test
[24] = Rate 250 g/ha, Postemergence (flood test species)
[25] = Rate 125 g/ha, Postemergence section (flood test species)

Cc1cnc(-c2ccc(Cl)cc2)nc1Cc1cccc(C#N)c1 [Compound 33]
Plant response rating, Bedstraw ([1]; Rate 62 g/ha, Postemergence): 9
Bedstraw plant response rating ([1]; Rate 62 g/ha): 0
Plant response rating, Bedstraw ([1]; Rate 125 g/ha, Postemergence): 9
Bedstraw plant response rating ([1]; Rate 125 g/ha): 1
Plant response rating, Bedstraw ([1]; Rate 250 g/ha, Postemergence): 9
Plant response rating, Bedstraw [1, 21]: 2
Plant response rating, Blackgrass ([2]; Rate 62 g/ha, Postemergence): 0
Blackgrass plant response rating ([2]; Rate 62 g/ha): 0
Plant response rating, Blackgrass ([2]; Rate 125 g/ha, Postemergence): 1
Blackgrass plant response rating ([2]; Rate 125 g/ha): 0
Plant response rating, Blackgrass ([2]; Rate 250 g/ha, Postemergence): 2
Plant response rating, Blackgrass [2, 21]: 0
Plant response rating, B. signalgrass ([3]; Rate 62 g/ha, Postemergence): 1
B. signalgrass plant response rating ([3]; Rate 62 g/ha): 0
Plant response rating, B. signalgrass ([3]; Rate 125 g/ha, Postemergence): 1
B. signalgrass plant response rating ([3]; Rate 125 g/ha): 1
Plant response rating, B. signalgrass ([3]; Rate 250 g/ha, Postemergence): 2
Plant response rating, B. signalgrass ([3]; Rate 250 g/ha, Postemergence as printed in head r139 (second section for compounds 26-50)): 1
Plant response rating, Cocklebur ([4]; Rate 62 g/ha, Postemergence): 3
Cocklebur plant response rating ([4]; Rate 62 g/ha): 0
Plant response rating, Cocklebur ([4]; Rate 125 g/ha, Postemergence): 6
Cocklebur plant response rating ([4]; Rate 125 g/ha): 0
Plant response rating, Cocklebur ([4]; Rate 250 g/ha, Postemergence): 6
Plant response rating, Cocklebur [4, 21]: 0
Plant response rating, Corn ([5]; Rate 62 g/ha, Postemergence): 1
Corn plant response rating ([5]; Rate 62 g/ha): 0
Plant response rating, Corn ([5]; Rate 125 g/ha, Postemergence): 1
Corn plant response rating ([5]; Rate 125 g/ha): 0
Plant response rating, Corn ([5]; Rate 250 g/ha, Postemergence): 1
Plant response rating, Corn [5, 21]: 0
Plant response rating, Crabgrass ([6]; Rate 62 g/ha, Postemergence): 0
Crabgrass plant response rating ([6]; Rate 62 g/ha): 0
Plant response rating, Crabgrass ([6]; Rate 125 g/ha, Postemergence): 0
Crabgrass plant response rating ([6]; Rate 125 g/ha): 0
Plant response rating, Crabgrass ([6]; Rate 250 g/ha, Postemergence): 1
Plant response rating, Crabgrass [6, 21]: 0
Plant response rating, Giant foxtail ([7]; Rate 62 g/ha, Postemergence): 0
Giant foxtail plant response rating ([7]; Rate 62 g/ha, Preemergence): 0
Giant foxtail plant response rating ([7]; Rate 125 g/ha, Postemergence): 0
Giant foxtail plant response rating ([7]; Rate 125 g/ha, Preemergence): 1
Plant response rating, Giant foxtail ([7]; Rate 250 g/ha, Postemergence): 1
Plant response rating, Giant foxtail [7, 21]: 1
Plant response rating, Morningglory ([8]; Rate 62 g/ha, Postemergence): 2
Morningglory plant response rating ([8]; Rate 62 g/ha, Preemergence): 0
Morningglory plant response rating ([8]; Rate 125 g/ha, Postemergence): 5
Morningglory plant response rating ([8]; Rate 125 g/ha, Preemergence): 0
Plant response rating, Morningglory ([8]; Rate 250 g/ha, Postemergence): 5
Plant response rating, Morningglory [8, 21]: 0
Plant response rating, Redroot pigweed ([9]; Rate 62 g/ha, Postemergence): 1
Redroot pigweed plant response rating ([9]; Rate 62 g/ha, Preemergence): 0
Redroot pigweed plant response rating ([9]; Rate 125 g/ha, Postemergence): 2
Redroot pigweed plant response rating ([9]; Rate 125 g/ha, Preemergence): 0
Plant response rating, Redroot pigweed ([9]; Rate 250 g/ha, Postemergence): 7
Plant response rating, Redroot pigweed [9, 21]: 2
Plant response rating, Nutsedge ([10]; Rate 62 g/ha, Postemergence): 0
Nutsedge plant response rating ([10]; Rate 62 g/ha, Preemergence): 0
Nutsedge plant response rating ([10]; Rate 125 g/ha, Postemergence): 0
Nutsedge plant response rating ([10]; Rate 125 g/ha, Preemergence): 0
Plant response rating, Nutsedge ([10]; Rate 250 g/ha, Postemergence): 0
Plant response rating, Rape ([11]; Rate 62 g/ha, Postemergence): 6
Rape plant response rating ([11]; Rate 62 g/ha, Preemergence): 0
Rape plant response rating ([11]; Rate 125 g/ha, Postemergence): 7
Rape plant response rating ([11]; Rate 125 g/ha, Preemergence): 0
Plant response rating, Rape ([11]; Rate 250 g/ha, Postemergence): 7
Plant response rating, Rape [11, 21]: 2
Plant response rating, Soybean ([12]; Rate 62 g/ha, Postemergence): 1
Soybean plant response rating ([12]; Rate 62 g/ha, Preemergence): 0
Soybean plant response rating ([12]; Rate 125 g/ha, Postemergence): 2
Plant response rating, Soybean ([12]; Rate 125 g/ha, Preemergence): 0
Plant response rating, Soybean ([12]; Rate 250 g/ha, Postemergence): 4
Plant response rating, Soybean [12, 21]: 0
Plant response rating, Sugarbeets ([13]; Rate 62 g/ha, Postemergence): 10
Sugarbeets plant response rating ([13]; Rate 62 g/ha, Preemergence): 0
Sugarbeets plant response rating ([13]; Rate 125 g/ha, Postemergence): 10
Plant response rating, Sugarbeets ([13]; Rate 125 g/ha, Preemergence): 1
Plant response rating, Sugarbeets ([13]; Rate 250 g/ha, Postemergence): 10
Plant response rating, Sugarbeets [13, 21]: 4
Plant response rating, Velvetleaf ([14]; Rate 62 g/ha, Postemergence): 1
Velvetleaf plant response rating ([14]; Rate 62 g/ha, Preemergence): 0
Velvetleaf plant response rating ([14]; Rate 125 g/ha, Postemergence): 4
Plant response rating, Velvetleaf ([14]; Rate 125 g/ha, Preemergence): 0
Plant response rating, Velvetleaf ([14]; Rate 250 g/ha, Postemergence): 6
Plant response rating, Velvetleaf [14, 21]: 1
Wheat plant response rating ([15]; Rate 62 g/ha, Postemergence): 0
Wheat plant response rating ([15]; Rate 62 g/ha, Preemergence): 0
Wheat plant response rating ([15]; Rate 125 g/ha, Postemergence): 1
Plant response rating, Wheat ([15]; Rate 125 g/ha, Preemergence): 0
Plant response rating, Wheat ([15]; Rate 250 g/ha, Postemergence): 1
Plant response rating, Wheat [15, 21]: 1
Wild oats plant response rating ([16]; Rate 62 g/ha, Postemergence): 1
Wild oats plant response rating ([16]; Rate 62 g/ha, Preemergence): 0
Wild oats plant response rating ([16]; Rate 125 g/ha, Postemergence): 2
Plant response rating, Wild oats ([16]; Rate 125 g/ha, Preemergence): 0
Plant response rating, Wild oats ([16]; Rate 250 g/ha, Postemergence): 3
Plant response rating, Wild oats [16, 21]: 1
Plant response rating, Barnyardgrass [17, 22]: 1
Plant response rating, Barnyardgrass [17, 23]: 2
Plant response rating, Barnyardgrass [17, 24]: 3
Plant response rating, Ducksalad [18, 22]: 0
Plant response rating, Ducksalad [18, 23]: 1
Plant response rating, Ducksalad [18, 24]: 2
Plant response rating, Rice [19, 22]: 1
Rice plant response rating [19, 25]: 1
Plant response rating, Rice [19, 24]: 3
Plant response rating, S. Flatsedge [20, 22]: 3
S. Flatsedge plant response rating [20, 25]: 7
Plant response rating, S. Flatsedge [20, 24]: 8
